Measurements reported in publication PMC8587047, “Synthesis and Biological Evaluation of Harmirins, Novel Harmine–Coumarin Hybrids as Potential Anticancer Agents” (Molecules, 2021).

Assays:
HepG2 = experiment: MTT cytotoxicity assay, HepG2; type: cell-based; conditions: Homo sapiens, HepG2; MTT, 72 h, mean ± SD; read-out: IC50 HepG2
Source text: (§1) We selected four different cancer cell lines for antiproliferative screening in vitro, which we believed would provide sufficient data on the anticancer potential of the prepared harmirins (hepatocellular carcinoma—HepG2, colorectal adenocarcinoma, Dukes’ type C—SW620, colorectal carcinoma—HCT116, and breast adenocarcinoma—MCF-7). Additionally, we included one non-cancer cell line (embryonic kidney—HEK293T) to evaluate harmirins’ selectivity. The commonly used anticancer drug 5-FU and harmine were used as positive controls. Pre-screening was performed using 50 µM of the tested compound. Only compounds that led to more than 50% reduction in mitochondrial metabolic activity at 50 µM concentration were selected for further analysis. The selectivity index (SI) for each harmirin was calculated as a fractional ratio between the IC50 values for HEK293T and the cancer cell line MCF-7 or HCT116 since these two cell lines were the most susceptible to harmirins.
(§2) The experiments were carried out on five human cell lines purchased from American Type Culture Collection (ATCC, PO BOX 1549, manassas, VA 20108, USA): HepG2 (hepatocellular carcinoma; ATCC® HB-8065™), SW620 (colorectal adenocarcinoma; ATCC® CCL-227™), HCT116 (colorectal carcinoma ATCC® CCL-247™), MCF-7 (breast adenocarcinoma, ATCC® HTB-22™), and HEK293T (embryonic kidney cells; ATCC® CRL-3216™). All cell lines were cultured as monolayers and maintained in Dulbecco’s modified Eagle medium (DMEM) (Capricorn Scientific, USA), supplemented with 10% fetal bovine serum (FBS) (Capricorn Scientific, USA), 100 U/mL penicillin, and 100 µg/mL streptomycin (Capricorn Scientific, USA) in a humidified atmosphere with 5% CO2 at 37 °C. Cells were seeded in 96-well plates (Corning, Durham, NC, USA) at 5000–7000 cells per well (depending on the cell doubling time of a specific cell line) in 0.1 mL media and cultured for 24 h. The next day, the medium was aspirated, and cells were treated for 72 h. Only the compounds that led to more than a 50% reduction in mitochondrial metabolic activity at a concentration of 50 µM were selected for further analysis. The following concentrations of selected compounds were used: 25, 10, 5, and 1 µM. Working dilutions were freshly prepared on the day of the testing. A fresh growth medium was added to untreated control cells, which were defined as 100% viable. DMSO (0.13%) in DMEM was considered a negative control. 5-Fluorouracil (5-FU) and harmine were used as positive controls. At the end of treatment, media was removed, and cells were incubated for 1 h with 0.5 mg/mL MTT (Abcam, Cambridge, MA, USA) dissolved in serum-deprived DMEM. The absorbance was directly proportional to cell viability. The MTT-containing media was then removed, and 0.1 mL isopropanol was added per well to lyse cells and dissolve formazan. The optical density was measured at 570 nm using a microplate reader (VICTOR3, PerkinElmer). Each test point was performed in triplicate. The IC50 values (concentration required to decrease viability by 50%) were calculated by using nonlinear regression on the sigmoidal dose–response plots and are expressed as mean ± SD.

SW620 = experiment: MTT cytotoxicity assay, SW620; type: cell-based; conditions: Homo sapiens, SW-620; MTT, 72 h, mean ± SD; read-out: IC50 SW620
Source text: as §1, §2

MCF-7 = experiment: MTT cytotoxicity assay, MCF-7; type: cell-based, human; conditions: for IC50: Homo sapiens, MCF7, MTT, 72 h, mean ± SD, read-out: IC50 MCF-7; for activity against MCF-7, fold stronger than 5-FU: compared with 5-FU IC50; for activity against MCF-7, fold higher than harmine: compared with harmine IC50; for SI (MCF-7): ratio IC50 HEK293T / IC50 MCF-7
Source text: as §1, §2

HCT116 = experiment: MTT cytotoxicity assay, HCT116; type: cell-based, human; conditions: for IC50: Homo sapiens, HCT-116, MTT, 72 h, mean ± SD, read-out: IC50 HCT116; for SI (HCT116): ratio IC50 HEK293T / IC50 HCT116
Source text: as §1, §2

HEK293T = experiment: MTT cytotoxicity assay, HEK293T (non-cancer); type: cell-based, human; conditions: for IC50: Homo sapiens, HEK-293T, MTT, 72 h, mean ± SD, non-cancer cell line, read-out: IC50 Hek293T
Source text: as §1, §2

Structure (SMILES) | IC50 (HepG2) [µM] | IC50 (SW620) [µM] | IC50 (MCF-7) [µM] | activity against MCF-7, fold stronger than 5-FU (MCF-7) | activity against MCF-7, fold higher than harmine (MCF-7) | SI (MCF-7) (MCF-7) | IC50 (HCT116) [µM] | SI (HCT116) (HCT116) | IC50 (HEK293T) [µM] | melting point | SIs (selectivity towards cancer cells in comparison to HEK293T) (HEK293T; cancer cell line not specified (MCF-7 or HCT116))
COc1ccc2c3ccnc(C)c3n(Cc3cn(-c4cc(=O)oc5ccc(F)cc45)nn3)c2c1 [13d, 6-Fluoro-4-(4-((7-methoxy-1-methyl-9H-pyrido[3,4-b]indol-9-yl)methyl)-1H-1,2,3-triazol-1-yl)-2H-chromen-2-one] | 3.1 ± 0.5 | 3.3 ± 0.4 | 2.7 ± 0.5 | 9–13 fold | 5–7 fold | 1.5 | 12.7 ± 0.6 | 0.3 | 3.9 ± 0.3 | 235 to 237 °C (dec.) | 
O=c1cc(OCc2cn(Cc3nccc4c3[nH]c3ccccc34)nn2)c2cc(Cl)ccc2o1 [4c, 4-((1-((9H-Pyrido[3,4-b]indol-1-yl)methyl)-1H-1,2,3-triazol-4-yl)methoxy)-6-chloro-2H-chromen-2-one] | > 50 | > 50 | 39.1 ± 3.6 |  |  | >1.3 | > 50 | >1 | > 50 | 263.5 to 265 °C (dec.) | 
Cc1nccc2c1[nH]c1cc(OCc3cn(-c4cc(=O)oc5ccccc45)nn3)ccc12 [12a, 4-(4-(((1-Methyl-9H-pyrido[3,4-b]indol-7-yl)oxy)methyl)-1H-1,2,3-triazol-1-yl)-2H-chromen-2-one] | 19.8 ± 1.1 | 30 ± 3.5 | 21.6 ± 3.7 |  |  | 0.7 | 10 ± 3.4 | 1.5 | 14.7 ± 0.8 |  | 
Cc1nccc2c1[nH]c1ccc(OCc3cn(-c4cc(=O)oc5ccc(F)cc45)nn3)cc12 [11d, 6-Fluoro-4-(4-(((1-methyl-9H-pyrido[3,4-b]indol-6-yl)oxy)methyl)-1H-1,2,3-triazol-1-yl)-2H-chromen-2-one] | 14.2 ± 0.4 | 12.7 ± 1.8 | 1.9 ± 0.2 | 9–13 fold | 5–7 fold |  | 2.7 ± 0.4 |  | 6.9 ± 0.6 | 224.5 to 225.5 °C (dec.) | 
O=c1cc(OCc2cn(Cc3nccc4c3[nH]c3ccccc34)nn2)c2cc(F)ccc2o1 [4d, 4-((1-((9H-Pyrido[3,4-b]indol-1-yl)methyl)-1H-1,2,3-triazol-4-yl)methoxy)-6-fluoro-2H-chromen-2-one] | > 50 | > 50 | > 50 |  |  | <0.9 | 33.1 ± 7.7 | 1.4 | 45.8 ± 0.2 | 239.5 to 241 °C (dec.) | 
COc1ccc2c3ccnc(C)c3n(Cc3cn(-c4cc(=O)oc5ccc(Cl)cc45)nn3)c2c1 [13c, 6-Chloro-4-(4-((7-methoxy-1-methyl-9H-pyrido[3,4-b]indol-9-yl)methyl)-1H-1,2,3-triazol-1-yl)-2H-chromen-2-one] | > 50 | > 50 | 32 ± 1.9 |  |  | >1.6 | 34.4 ± 3.3 | >1.5 | > 50 | 233 to 239.5 °C (dec.) | 
O=c1cc(OCc2cn(Cc3nccc4c3[nH]c3ccccc34)nn2)c2ccccc2o1 [4a, 4-((1-((9H-Pyrido[3,4-b]indol-1-yl)methyl)-1H-1,2,3-triazol-4-yl)methoxy)-2H-chromen-2-one] | 29.5 ± 3.5 | > 50 | > 50 |  |  | >1 | > 50 | >1 | > 50 | 260.5 to 264 °C (dec.) | 
O=c1[nH]cc(F)c(=O)[nH]1 [5-FU, 5-fluorouracil, reference compound] | 5.5 ± 0.6 | 9.4 ± 0.3 | 23.9 ± 5.7 |  |  | 0.3 | 5.2 ± 2.8 | 1.6 | 8.1 ± 0.8 |  | 
Cc1nccc2c1[nH]c1ccc(OCc3cn(-c4cc(=O)oc5ccc(Cl)cc45)nn3)cc12 [11c, 6-Chloro-4-(4-(((1-methyl-9H-pyrido[3,4-b]indol-6-yl)oxy)methyl)-1H-1,2,3-triazol-1-yl)-2H-chromen-2-one] | 14 ± 1.2 | 30.3 ± 3.9 | 13.3 ± 1.5 |  |  | 0.9 | 15.5 ± 4.4 | 0.8 | 12.2 ± 1 | 220 to 225 °C (dec.) | 
Cc1nc(Cn2cc(COc3cc(=O)oc4ccc(Cl)cc34)nn2)cc2c1[nH]c1ccccc12 [5c, 6-Chloro-4-((1-((1-methyl-9H-pyrido[3,4-b]indol-3-yl)methyl)-1H-1,2,3-triazol-4-yl)methoxy)-2H-chromen-2-one] | 18.5 ± 2.3 | > 50 | 15 ± 1.3 |  |  | 0.6 | 7.1 ± 0.7 | 1.2 | 8.5 ± 0.3 | 254 to 257.5 °C (dec.) | 
Cc1ccc2oc(=O)cc(-n3cc(COc4ccc5[nH]c6c(C)nccc6c5c4)nn3)c2c1 [11b, 6-Methyl-4-(4-(((1-methyl-9H-pyrido[3,4-b]indol-6-yl)oxy)methyl)-1H-1,2,3-triazol-1-yl)-2H-chromen-2-one] | 13.6 ± 0.8 | > 50 | 10.4 ± 0.8 |  |  | 2 | > 50 | <0.4 | 21.3 ± 4.1 | 235 to 242 °C (dec.) | 
Cc1nccc2c1[nH]c1cc(OCc3cn(-c4cc(=O)oc5ccc(Cl)cc45)nn3)ccc12 [12c, 6-Chloro-4-(4-(((1-methyl-9H-pyrido[3,4-b]indol-7-yl)oxy)methyl)-1H-1,2,3-triazol-1-yl)-2H-chromen-2-one] | > 50 | > 50 | 38.2 ± 2.5 |  |  | 1.2 | 37.6 ± 6.9 | 1.2 | 46.2 ± 4.7 | 244 to 247 °C (dec.) | 
COc1ccc2c3ccnc(C)c3n(Cc3cn(-c4cc(=O)oc5ccccc45)nn3)c2c1 [13a, 4-(4-((7-Methoxy-1-methyl-9H-pyrido[3,4-b]indol-9-yl)methyl)-1H-1,2,3-triazol-1-yl)-2H-chromen-2-one] | 19.6 ± 1.3 | > 50 | 34 ± 2.1 |  |  | 0.4 | 3.4 ± 0.6 | 3.6 | 12.4 ± 1.1 | 239 to 243.5 °C (dec.) | 
Cc1ccc2oc(=O)cc(OCc3cn(Cc4nccc5c4[nH]c4ccccc45)nn3)c2c1 [4b, 4-((1-((9H-Pyrido[3,4-b]indol-1-yl)methyl)-1H-1,2,3-triazol-4-yl)methoxy)-6-methyl-2H-chromen-2-one] | 27.3 ± 1.2 | > 50 | 35.7 ± 1 |  |  | 0.7 | > 50 | <0.5 | 26 ± 1 | 246.5 to 251 °C (dec.) | 
Cc1ccc2oc(=O)cc(OCc3cn(Cc4cc5c([nH]c6ccccc65)c(C)n4)nn3)c2c1 [5b, 6-Methyl-4-((1-((1-methyl-9H-pyrido[3,4-b]indol-3-yl)methyl)-1H-1,2,3-triazol-4-yl)methoxy)-2H-chromen-2-one] | 16.8 ± 1.4 | > 50 | > 50 |  |  | <0.6 | 3.2 ± 0.5 | 8.6 | 27.3 ± 2.1 | 263 to 267.5 °C (dec.) | > 7.2
